Test results as given in patent US20070082061A1, “REDUCTION OF SALTINESS WITH SWEETENERS” (priority 2005, published 2007).
Several values for one entry are separate records, joined by “and”; a condition that tells them apart may be missing. Equal values may be shown once.

Key:
[1] = Mean acceptability ratings (Likert) of sweetener systems in phosphate salt bowel cleanser, 19 test subjects (Example 6); format: in vivo, human; settings: at the same 0.38% concentration; systems with Ace-K
Procedure: A comparison between Saccharin/Ace-K and Sucralose/Ace-K was performed to determine which of these two sweetener systems most improved the palatability of a salty bowel cleanser. Table 3, below, provides the mean acceptability ratings for 19 test subjects who tasted 5:1 Saccharin/Ace-K and 5:1 Sucralose/Ace-K sweetener systems in 60 mL of the phosphate salt bowel cleanser from Example 2 in 355 mL of water.

[2] = considered to be; cited from earlier work
[3] = Preferred Sucralose concentration in water, 0.4% NaCl and 2% NaCl, approximately 40 testers (Example 9); format: in vivo, human; settings: for Preferred Sucralose Concentration (wt %): correlation line of FIG. 1
From the text: To determine the preferred concentration of Sucralose to reduce the saltiness of bowel cleansers having different perceived saltiness, varying concentrations of Sucralose were tasted in water, a 0.4% NaCI water solution, and a 2% NaCI water solution. For each solution, approximately 40 testers were asked to rate four different concentrations of Sucralose. Tables 4, 5, and 6, below, present the average test data for the water, 0.4% NaCI water solution, and 2% NaCI water solution, respectively.
FIG. 1 plots the increasing salinity of the solutions from Tables 4, 5, and 6 against the preferred concentration of Sucralose required to reduce the saltiness and increase the palatability of each solution. The graph establishes that as saltiness increases, the amount of sweetener that should be added to improve palatability linearly increases (R^2=0.997). The X-axis NaCI and the Y-axis Sucralose concentrations represented by the correlation line from FIG. 1 are presented below in Table 7.

[4] = Taste tests to determine equivalent sweetness of sweeteners in a salty liquid (Example 4); format: in vivo, human
Procedure: Before a preferred sweetener for use in salty liquids could be determined, the amount of each sweetener required to provide an equivalent sweetness was determined. Multiple taste tests were performed comparing various concentrations of Sucralose, Ace-K, the 5:1 Ace-K/Sucralose blend, Saccharin, and sucrose in a salty liquid to determine an equivalent […].

[5] = Preferred Sucralose concentration in PEG based bowel cleanser NuLytely, thirty test subjects (Example 11); format: in vivo, human; settings: for rating of individual test subject / rating, Average: scale 1 to 5, 5 highly preferred, PEG based bowel cleanser
From the text: To determine the preferred concentration of Sucralose to reduce the saltiness of a PEG based bowel cleanser, test subjects were asked to taste unsweetened and three sweetened solutions of NuLytely®. NuLytely® is an aqueous liquid including approximately 420 g of 3350 PEG, 5.72 g of sodium bicarbonate, 11.2 g of NaCI, and 1.48 g of KCI. It has a similar perceived saltiness to the similar GoLytely®, which is an aqueous liquid including approximately 236 g of 3350 PEG, 22.74 g of sodium sulfate, 6.74 g of sodium bicarbonate, 5.86 g of NaCI, and 2.97 g of KCI. Either solution has a saltiness that approximates the 0.4% NaCl/water solution of Example 9.
Each of thirty test subjects was asked to rate the four solutions on a scale of 1 to 5 with 5 being highly preferred and 1 being least preferred. The first solution included no sweetener. The second, third, and fourth solutions included 0.01%, 0.025%, or 0.05% (w/w) of Sucralose, respectively.

[6] = Preference comparison of sweetened and unsweetened NaCl solutions and phosphate salt bowel cleansers (Example 8); format: in vivo, human
From the text: To establish the reliability of the NaCI to bowel cleanser comparison, test subjects were asked to taste sweetened and unsweetened NaCI solutions and sweetened and unsweetened phosphate salt bowel cleansers. In this comparison of the sweetened and unsweetened NaCI solutions, out of 19 test subjects, 17 preferred the 2% NaCI solution that included 0.13% Sucralose. Furthermore, in the preference comparison of the sweetened and unsweetened phosphate salt bowel cleanser, 18 out of 20 test subjects preferred the phosphate salt bowel cleanser including 0.13% Sucralose. Therefore, the palatability increase provided by the Sucralose was similarly observed for the 2% NaCI/water solution and the phosphate salt bowel cleanser.

[7] = Stability of sweeteners in FLEET PHOSPHO-SODA (Example 1)
Procedure: While it is possible to add the sweetener and/or flavoring a short time before consumption of a phosphate salt bowel cleanser and retain at least a portion of the palatability benefits, one goal of the present bowel cleansing compositions is to provide stable liquids having increased palatability. Thus, numerous sweeteners and flavorings were tested for stability in phosphate salt bowel cleanser.
Sucrose, Saccharin, Sucralose, Aspartame, Ace-K, Thaumatin (Talin), Neohesperidine Dihydrochalcone (NHDC), and Trehalose were tested for stability in FLEET® PHOSPHO-SODA®.

[8] = Sweetener concentration preference in diluted phosphate salt bowel cleanser, about 35 testers (Example 10); format: in vivo, human; settings: for Average rating: scale 1 to 4, 4 highly preferred, 60 mL phosphate salt bowel cleanser in 355 mL water
Procedure: To confirm the correlation of FIG. 1 in a bowel cleanser with multiple sweeteners, approximately 35 testers were asked to select the most palatable solution from five possibilities. Each of the five solutions included 60 mL of the phosphate salt bowel cleanser from Example 2 in 355 mL of water. This solution has an equivalent saltiness to the 2% NaCI/water solution of Example 9. The first of the five solutions lacked any sweetener, while an increasing concentration of sweetener was added to the remaining four. Tests were performed using Sucralose, the 5:1 Ace-K/Sucralose blend, Ace-K, or Saccharin as the sweetener.
Tables 8, 9, 10, and 11, below, present the average test data for each sweetener, respectively.
The sweetener concentration for each data point corresponds to those in Tables 8 through 11, above, with higher values on the X-axis corresponding to higher sweetener concentrations.

[9] = Sweetener preference in diluted phosphate salt bowel cleanser, forty test subjects (Example 5); format: in vivo, human; settings: scale 1 to 4; 0.05% sweetener; 60 mL phosphate salt bowel cleanser in 355 mL water
Procedure: Each solution was prepared by diluting 60 mL of the phosphate salt bowel cleanser from Example 2 in 355 mL of water and using either 0.05% Ace-K, 0.05% Sucralose, 0.08% saccharin, 0.05% of a 5:1 Ace-K/Sucralose blend, or 15% sucrose as the sweetener.

OC[C@H]1O[C@H](O[C@]2(CCl)O[C@H](CCl)[C@@H](O)[C@@H]2O)[C@H](O)[C@@H](O)[C@H]1Cl [Sucralose]
preference for Sucralose over Saccharin [1]: up to 55%
sweetness relative to sucrose / sugar [2]: about 600 times
Preferred Sucralose Concentration (wt %) ([3]; NaCl Concentration 0.0 wt %): 0.011 wt %
Preferred Sucralose Concentration (wt %) ([3]; NaCl Concentration 0.2 wt %): 0.015 wt %
Preferred Sucralose Concentration (wt %) ([3]; NaCl Concentration 0.4 wt %): 0.019 wt %
Preferred Sucralose Concentration (wt %) ([3]; NaCl Concentration 0.6 wt %): 0.023 wt %
Preferred Sucralose Concentration (wt %) ([3]; NaCl Concentration 0.8 wt %): 0.027 wt %
Preferred Sucralose Concentration (wt %) ([3]; NaCl Concentration 1.0 wt %): 0.031 wt %
Preferred Sucralose Concentration (wt %) ([3]; NaCl Concentration 1.2 wt %): 0.035 wt %
Preferred Sucralose Concentration (wt %) ([3]; NaCl Concentration 1.4 wt %): 0.038 wt %
Preferred Sucralose Concentration (wt %) ([3]; NaCl Concentration 1.6 wt %): 0.042 wt %
Preferred Sucralose Concentration (wt %) ([3]; NaCl Concentration 1.8 wt %): 0.046 wt %
Preferred Sucralose Concentration (wt %) ([3]; NaCl Concentration 2.0 wt %): 0.050 wt %
Preferred Sucralose Concentration (wt %) ([3]; NaCl Concentration 2.2 wt %): 0.054 wt %
Preferred Sucralose Concentration (wt %) ([3]; NaCl Concentration 2.4 wt %): 0.058 wt %
Preferred Sucralose Concentration (wt %) ([3]; NaCl Concentration 2.6 wt %): 0.062 wt %
Preferred Sucralose Concentration (wt %) ([3]; NaCl Concentration 2.8 wt %): 0.066 wt %
Preferred Sucralose Concentration (wt %) ([3]; NaCl Concentration 3.0 wt %): 0.070 wt %
preferred level of Sucralose ([3]; in the 0.4% NaCl solution): 0.02%
preferred level of Sucralose ([3]; in the 2% NaCl solution): 0.05%
preferred level of Sucralose ([3]; in water alone): 0.005%
sweetener concentration providing an equivalent sweetness [4]: 0.05%
preference of sweetened PEG based bowel cleanser compared with the unsweetened PEG cleanser ([5]; Sucralose-sweetened NuLytely): approximately 37%
preferred Sucralose concentration ([5]; in the PEG based bowel cleanser): 0.025%
rating of individual test subject ([5]; 0.01 % Sucralose): 4 (7×) and 2 (13×) and 3 (10×)
rating, Average ([5]; 0.01 % Sucralose): 2.80
rating of individual test subject ([5]; 0.025 % Sucralose): 4 (9×) and 2 (12×) and 3 (5×) and 1 (2×) and 5 (2×)
rating, Average ([5]; 0.025 % Sucralose): 2.90
rating of individual test subject ([5]; 0.05 % Sucralose): 2 (11×) and 1 (8×) and 5 (2×) and 4 (7×) and 3 (2×)
rating, Average ([5]; 0.05 % Sucralose): 2.47
number of test subjects preferring the sweetened solution ([6]; out of 19 test subjects, 2% NaCl solution with 0.13% Sucralose vs unsweetened): 17
number of test subjects preferring the sweetened cleanser ([6]; out of 20 test subjects, phosphate salt bowel cleanser with 0.13% Sucralose vs unsweetened): 18
stability in FLEET PHOSPHO-SODA [7]: acceptable stability
preferred sweetener concentration to decrease saltiness ([8]; in the phosphate salt bowel cleanser): 0.05%
Likert preferability comparison of sweeteners (FIG. 2) ([8]; phosphate salt bowel cleanser, scale 1 to 5, 5 most preferred, in words): most preferred
Average rating ([8]; Sucralose 0.0125 % (w/w)): 2.56
Average rating ([8]; Sucralose 0.025 % (w/w)): 2.72
Average rating ([8]; Sucralose 0.05 % (w/w)): 3.22
Average rating ([8]; Sucralose 0.1 % (w/w)): 2.88
average preference value [9]: 3.2
